Literature values, collected in patent publication US20250360113A1, “ADMINISTRATION OF DHB TO INCREASE BENEFIT OF LOSING WEIGHT OF INTERMITTENT FASTING” (NANJING NUTRABUILDING BIO-TECH CO., LTD., priority 2023, published 2025).

Experiments:
[1] = obese db/db mice; cited from earlier work
brown adipocyte = details: by increasing transcription of PRDM16 via AMPK activation and PGC-1α recruitment; cited from earlier work

SMILES: COc1ccc2cc3[n+](cc2c1OC)CCc1cc2c(cc1-3)OCO2 [BBR, berberine]
- energy expenditure and adaptive thermogenesis [1]: increase
- thermogenic program in BAT [1]: promote
- weight gain [1]: reduce
- brown adipocyte differentiation and brown adipose tissues (BAT) thermogenesis (brown adipocyte): promote
